Results as given in ChEMBL document CHEMBL5335791, “Antiparasitic activity of ivermectin: Four decades of research into a "wonder drug"” (Eur J Med Chem, 2023).

How the values were obtained:
[1] = test system: Trypanosoma cruzi; test: Antitrypanosomal activity against Trypanosoma cruzi Y strain amastigotes; type: functional, organism-based
[2] = test system: Trypanosoma cruzi; test: Antitrypanosomal activity against Trypanosoma cruzi Y strain trypomastigotes; type: functional, organism-based
[3] = test system: Trypanosoma cruzi; test: Antitrypanosomal activity against Trypanosoma cruzi Y strain intracellular epimastigotes assessed as viability of intracellular epimastigote measured after 5 days; type: functional, organism-based
[4] = Acute toxicity in Beagle dog assessed as lethal dose; parameters: species or system Canis lupus familiaris; settings: in vivo
[5] = Toxicity in mouse assessed as lethal dose; settings: in vivo
[6] = test system: Leishmania infantum; test: Antileishmanial activity against promastigote form of Leishmania infantum infected in BALB/c mouse assessed as reduction in parasite growth at 2.5 mg/kg, po administered once for every two days for 10 days; type: functional, organism-based
[7] = test system: Macrophage; test: (§1) Cytotoxicity against BALB/c mouse macrophage assessed as cell viability measured after 48 hrs by MTT assay; type: toxicity, cell-based; settings: macrophage, 48 h
[8] = Selectivity index, ratio of CC50 for cytotoxicity against BALB/c mouse macrophages to IC50 for antileishmanial activity against promastigote form of Leishmania infantum infected in BALB/c mouse; type: toxicity
[9] = test system: Trypanosoma evansi; test: Antitrypanosomal activity against Trypanosoma evansi; type: functional, organism-based
[10] = as §1; type: toxicity, cell-based; settings: BALB/c, mouse macrophages

Molecule | EC50 [1] | EC50 [2] | EC50 [3] | LD50 [4] | LD50 [5] | IC50 [6] | CC50 [7] | Ratio CC50/IC50 [8] | IC50 [9] | IC50 ([6]; Leishmania infantum) | CC50 at 48 h [10] | selectivity ratio ([8]; BALB/c, mouse macrophages, read-out: Ratio CC50/IC50)
IVERMECTIN | 300 nM | 12.5 µM | 5.3 µM | 80 mg/kg | 200 µg/kg | 3640 nM | 428 µM | 117 | 13.8 µM |  |  | 
C[C@@H]1[C@H](O)[C@@H](C)/C=C/C=C/C=C/C=C/C=C/C=C/C=C/[C@H](O[C@@H]2O[C@H](C)[C@@H](O)[C@H](N)[C@@H]2O)C[C@@H]2O[C@](O)(C[C@@H](O)C[C@@H](O)[C@H](O)CC[C@@H](O)C[C@@H](O)CC(=O)O[C@H]1C)C[C@H](O)[C@H]2C(=O)O [AMPHOTERICIN B] |  |  |  |  |  |  |  |  |  | 120 nM | 1060 nM | ~9
